Assay results as given in ChEMBL document CHEMBL5579900, “Enhanced Recognition Memory through Dual Modulation of Brain Carbonic Anhydrases and Cholinesterases” (J Med Chem, 2024).

Tests used:
Acetylcholinesterase = Acetylcholinesterase (Electrophorus electricus, UniProt O42275)
Description: Inhibition of electric eel AChE by microplate reader based analysis

[1] = target: Carbonic anhydrase 2 (Homo sapiens) (UniProt P00918)
Description: Binding affinity to human carbonic anhydrase 2 assessed as activation constant by phenol red dye based stopped-flow method

Cholinesterase = Cholinesterase (Equus caballus, UniProt P81908)
Description: Inhibition of equine serum BuChE by microplate reader based analysis

[2] = target: Carbonic anhydrase 1 (Homo sapiens) (UniProt P00915)
Description: Binding affinity to human carbonic anhydrase 1 assessed as activation constant by phenol red dye based stopped-flow method

[3] = target: Carbonic anhydrase 4 (Homo sapiens) (UniProt P22748)
Description: Binding affinity to human carbonic anhydrase 4 assessed as activation constant by phenol red dye based stopped-flow method

[4] = target: Carbonic anhydrase 7 (Homo sapiens) (UniProt P43166)
Description: Binding affinity to human carbonic anhydrase 7 assessed as activation constant by phenol red dye based stopped-flow method

[5] = target: Carbonic anhydrase 5B, mitochondrial (Homo sapiens) (UniProt Q9Y2D0)
Sequence of Carbonic anhydrase 5B, mitochondrial (Homo sapiens) (Q9Y2D0 whole entry): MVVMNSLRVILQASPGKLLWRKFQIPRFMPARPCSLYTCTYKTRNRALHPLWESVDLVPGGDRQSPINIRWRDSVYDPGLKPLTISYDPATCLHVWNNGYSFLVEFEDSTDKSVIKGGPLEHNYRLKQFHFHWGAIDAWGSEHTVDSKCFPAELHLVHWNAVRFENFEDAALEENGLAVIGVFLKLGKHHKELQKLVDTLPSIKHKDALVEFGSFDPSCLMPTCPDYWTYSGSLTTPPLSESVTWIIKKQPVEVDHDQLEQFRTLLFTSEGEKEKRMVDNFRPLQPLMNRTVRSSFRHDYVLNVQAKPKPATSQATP
Description: Binding affinity to human carbonic anhydrase 5B assessed as activation constant by phenol red dye based stopped-flow method

Sequence of Carbonic anhydrase 4 (Homo sapiens) (P22748 whole entry): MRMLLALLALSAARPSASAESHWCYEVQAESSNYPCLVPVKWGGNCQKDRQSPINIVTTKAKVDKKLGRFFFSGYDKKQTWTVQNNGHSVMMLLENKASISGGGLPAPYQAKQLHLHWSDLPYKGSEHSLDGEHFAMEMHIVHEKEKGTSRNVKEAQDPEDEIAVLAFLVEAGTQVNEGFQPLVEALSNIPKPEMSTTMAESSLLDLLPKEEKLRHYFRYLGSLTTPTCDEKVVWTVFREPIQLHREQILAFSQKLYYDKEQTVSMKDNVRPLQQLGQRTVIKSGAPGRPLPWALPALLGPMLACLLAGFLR
Sequence of Carbonic anhydrase 7 (Homo sapiens) (P43166 whole entry): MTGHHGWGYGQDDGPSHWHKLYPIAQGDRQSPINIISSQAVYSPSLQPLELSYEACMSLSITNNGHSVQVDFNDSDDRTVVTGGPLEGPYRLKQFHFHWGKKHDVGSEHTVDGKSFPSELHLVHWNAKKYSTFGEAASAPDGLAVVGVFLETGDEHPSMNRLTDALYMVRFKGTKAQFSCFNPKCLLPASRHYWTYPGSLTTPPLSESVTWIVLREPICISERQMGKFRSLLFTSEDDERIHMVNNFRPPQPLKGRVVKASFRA
Sequence of Carbonic anhydrase 1 (Homo sapiens) (P00915 2-261 limits assumed): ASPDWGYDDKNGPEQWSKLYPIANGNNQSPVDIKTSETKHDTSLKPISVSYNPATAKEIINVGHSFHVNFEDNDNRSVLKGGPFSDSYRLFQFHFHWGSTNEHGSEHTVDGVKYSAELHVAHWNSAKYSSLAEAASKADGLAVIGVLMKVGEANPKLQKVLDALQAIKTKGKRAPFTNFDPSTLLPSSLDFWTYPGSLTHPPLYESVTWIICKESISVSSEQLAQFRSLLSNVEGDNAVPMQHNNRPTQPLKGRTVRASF
Sequence of Acetylcholinesterase (O42275 whole entry): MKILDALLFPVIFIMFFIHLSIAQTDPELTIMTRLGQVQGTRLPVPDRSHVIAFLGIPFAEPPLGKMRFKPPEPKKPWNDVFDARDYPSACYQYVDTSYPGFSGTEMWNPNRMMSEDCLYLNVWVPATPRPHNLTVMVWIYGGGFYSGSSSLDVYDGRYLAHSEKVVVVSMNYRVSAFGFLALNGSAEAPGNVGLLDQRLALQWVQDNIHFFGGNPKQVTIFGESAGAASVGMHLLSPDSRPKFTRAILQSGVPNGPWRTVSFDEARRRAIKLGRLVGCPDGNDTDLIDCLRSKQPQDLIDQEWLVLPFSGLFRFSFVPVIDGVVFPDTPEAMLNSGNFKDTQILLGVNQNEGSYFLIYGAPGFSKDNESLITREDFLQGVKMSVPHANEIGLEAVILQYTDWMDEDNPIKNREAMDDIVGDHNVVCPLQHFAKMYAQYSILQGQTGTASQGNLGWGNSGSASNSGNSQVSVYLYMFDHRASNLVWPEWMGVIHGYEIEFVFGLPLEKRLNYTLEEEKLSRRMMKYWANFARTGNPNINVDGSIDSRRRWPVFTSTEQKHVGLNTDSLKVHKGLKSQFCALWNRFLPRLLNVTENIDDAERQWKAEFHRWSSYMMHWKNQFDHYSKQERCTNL
Sequence of Cholinesterase (P81908 whole entry): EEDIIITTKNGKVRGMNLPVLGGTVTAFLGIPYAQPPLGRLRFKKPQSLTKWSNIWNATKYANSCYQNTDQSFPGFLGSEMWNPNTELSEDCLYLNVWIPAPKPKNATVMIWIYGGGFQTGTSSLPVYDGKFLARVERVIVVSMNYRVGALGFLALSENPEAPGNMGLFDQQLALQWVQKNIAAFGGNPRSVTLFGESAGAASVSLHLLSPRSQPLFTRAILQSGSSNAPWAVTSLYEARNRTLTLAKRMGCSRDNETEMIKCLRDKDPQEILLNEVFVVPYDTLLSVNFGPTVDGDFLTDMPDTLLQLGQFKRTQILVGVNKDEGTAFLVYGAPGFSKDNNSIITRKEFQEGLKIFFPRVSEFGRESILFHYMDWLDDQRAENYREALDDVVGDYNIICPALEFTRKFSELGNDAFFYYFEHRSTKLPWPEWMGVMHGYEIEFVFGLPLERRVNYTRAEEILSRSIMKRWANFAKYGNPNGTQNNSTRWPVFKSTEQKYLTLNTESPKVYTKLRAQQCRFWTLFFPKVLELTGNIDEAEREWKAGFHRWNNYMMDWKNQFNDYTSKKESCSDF

N[C@@H](Cc1ccccc1)C(=O)NCCCCCCNc1c2c(nc3ccccc13)CCCC2
IC50 (Acetylcholinesterase): 78 nM | KA ([1]; filed as activator): 157 nM | IC50 (Cholinesterase): 2.7 nM | KA ([2]; filed as activator): 481 nM | KA ([3]; filed as activator): 4.78 µM | KA ([4]; filed as activator): 160 nM | KA ([5]; filed as activator): 4.64 µM

COC(=O)[C@H](Cc1ccccc1)NCCCCCNc1c2c(nc3ccccc13)CCCC2
IC50 (Acetylcholinesterase): 110 nM | KA ([1]; filed as activator): 247 nM | IC50 (Cholinesterase): 3.8 nM | KA ([2]; filed as activator): 731 nM | KA ([3]; filed as activator): 3.45 µM | KA ([4]; filed as activator): 535 nM | KA ([5]; filed as activator): 5.32 µM

CC(C)(C)OC(=O)N[C@@H](Cc1cn(C(=O)OC(C)(C)C)cn1)C(=O)NCCCCCNc1c2c(nc3ccccc13)CCCC2
IC50 (Acetylcholinesterase): 141 nM | KA ([1]; filed as activator): 11100 nM | IC50 (Cholinesterase): 0.57 nM | KA [2]: > 50000 nM | KA [3]: > 50 µM | KA [4]: > 50000 nM | KA ([5]; filed as activator): 9.05 µM

CC(C)(C)OC(=O)N[C@@H](Cc1ccccc1)C(=O)NCCCCCNc1c2c(nc3ccccc13)CCCC2
IC50 (Acetylcholinesterase): 243 nM | KA [1]: > 50000 nM | IC50 (Cholinesterase): 0.34 nM | KA [2]: > 50000 nM | KA [3]: > 50 µM | KA [4]: > 50000 nM | KA [5]: > 50 µM

COC(=O)[C@H](Cc1ccc(OCCCCCCNc2c3c(nc4ccccc24)CCCC3)cc1)NC(=O)OC(C)(C)C
IC50 (Acetylcholinesterase): 16 nM | KA [1]: > 50000 nM | IC50 (Cholinesterase): 0.11 nM | KA [2]: > 50000 nM | KA [3]: > 50 µM | KA [4]: > 50000 nM | KA [5]: > 50 µM

CC(C)(C)OC(=O)N[C@@H](Cc1ccccc1)C(=O)NCCCCNc1c2c(nc3ccccc13)CCCC2
IC50 (Acetylcholinesterase): 158 nM | KA [1]: > 50000 nM | IC50 (Cholinesterase): 0.38 nM | KA [2]: > 50000 nM | KA [3]: > 50 µM | KA [4]: > 50000 nM | KA [5]: > 50 µM

CC(C)(C)OC(=O)N[C@@H](CCCCNC(=O)OCc1ccccc1)C(=O)NCCCNc1c2c(nc3ccccc13)CCCC2
IC50 (Acetylcholinesterase): 419 nM | KA [1]: > 50000 nM | IC50 (Cholinesterase): 0.25 nM | KA [2]: > 50000 nM | KA [3]: > 50 µM | KA [4]: > 50000 nM | KA [5]: > 50 µM

CC(C)(C)OC(=O)N[C@@H](CCCCNC(=O)OCc1ccccc1)C(=O)NCCCCNc1c2c(nc3ccccc13)CCCC2
IC50 (Acetylcholinesterase): 327 nM | KA [1]: > 50000 nM | IC50 (Cholinesterase): 0.16 nM | KA [2]: > 50000 nM | KA [3]: > 50 µM | KA [4]: > 50000 nM | KA [5]: > 50 µM

COC(=O)[C@H](Cc1c[nH]c2ccccc12)NCCCCCCNc1c2c(nc3ccccc13)CCCC2
IC50 (Acetylcholinesterase): 23.3 nM | KA ([1]; filed as activator): 631 nM | IC50 (Cholinesterase): 2.8 nM | KA ([2]; filed as activator): 436 nM | KA ([3]; filed as activator): 2.23 µM | KA ([4]; filed as activator): 637 nM | KA ([5]; filed as activator): 5.1 µM

CC(C)(C)OC(=O)N[C@@H](Cc1ccccc1)C(=O)NCCCNc1c2c(nc3ccccc13)CCCC2
IC50 (Acetylcholinesterase): 202 nM | KA [1]: > 50000 nM | IC50 (Cholinesterase): 0.16 nM | KA [2]: > 50000 nM | KA [3]: > 50 µM | KA [4]: > 50000 nM | KA [5]: > 50 µM

N[C@@H](Cc1c[nH]c2ccccc12)C(=O)NCCCNc1c2c(nc3ccccc13)CCCC2
IC50 (Acetylcholinesterase): 58.9 nM | KA ([1]; filed as activator): 833 nM | IC50 (Cholinesterase): 1.6 nM | KA ([2]; filed as activator): 1010 nM | KA ([3]; filed as activator): 2.33 µM | KA ([4]; filed as activator): 566 nM | KA ([5]; filed as activator): 1.96 µM

N[C@@H](Cc1c[nH]cn1)C(=O)NCCCCNc1c2c(nc3ccccc13)CCCC2
IC50 (Acetylcholinesterase): 101 nM | KA ([1]; filed as activator): 199 nM | IC50 (Cholinesterase): 4.1 nM | KA ([2]; filed as activator): 972 nM | KA ([3]; filed as activator): 0.958 µM | KA ([4]; filed as activator): 391 nM | KA ([5]; filed as activator): 1.47 µM

COC(=O)[C@H](Cc1ccccc1)NCCCCCCNc1c2c(nc3ccccc13)CCCC2
IC50 (Acetylcholinesterase): 21.8 nM | KA ([1]; filed as activator): 312 nM | IC50 (Cholinesterase): 0.21 nM | KA ([2]; filed as activator): 992 nM | KA ([3]; filed as activator): 1.45 µM | KA ([4]; filed as activator): 397 nM | KA ([5]; filed as activator): 5.17 µM

COC(=O)[C@H](CCCCNC(=O)OCc1ccccc1)NCCCCCNc1c2c(nc3ccccc13)CCCC2
IC50 (Acetylcholinesterase): 12.4 nM | KA ([1]; filed as activator): 1990 nM | IC50 (Cholinesterase): 0.073 nM | KA ([2]; filed as activator): 3300 nM | KA ([3]; filed as activator): 19 µM | KA ([4]; filed as activator): 1370 nM | KA ([5]; filed as activator): 1.4 µM

N[C@@H](CCCCNC(=O)OCc1ccccc1)C(=O)NCCCCCNc1c2c(nc3ccccc13)CCCC2
IC50 (Acetylcholinesterase): 238 nM | KA ([1]; filed as activator): 981 nM | IC50 (Cholinesterase): 0.33 nM | KA ([2]; filed as activator): 3530 nM | KA ([3]; filed as activator): 3.61 µM | KA ([4]; filed as activator): 2730 nM | KA ([5]; filed as activator): 4.97 µM

N[C@@H](Cc1c[nH]cn1)C(=O)NCCCCCCNc1c2c(nc3ccccc13)CCCC2
IC50 (Acetylcholinesterase): 12.1 nM | KA ([1]; filed as activator): 283 nM | IC50 (Cholinesterase): 5.2 nM | KA ([2]; filed as activator): 1050 nM | KA ([3]; filed as activator): 3.56 µM | KA ([4]; filed as activator): 82.8 nM | KA ([5]; filed as activator): 0.554 µM

COC(=O)[C@H](CCCCNC(=O)OCc1ccccc1)NCCCCCCNc1c2c(nc3ccccc13)CCCC2
IC50 (Acetylcholinesterase): 35.6 nM | KA ([1]; filed as activator): 2410 nM | IC50 (Cholinesterase): 0.29 nM | KA ([2]; filed as activator): 2280 nM | KA ([3]; filed as activator): 20.2 µM | KA ([4]; filed as activator): 2250 nM | KA ([5]; filed as activator): 4.61 µM

N[C@@H](Cc1c[nH]c2ccccc12)C(=O)NCCCCNc1c2c(nc3ccccc13)CCCC2
IC50 (Acetylcholinesterase): 145 nM | KA ([1]; filed as activator): 413 nM | IC50 (Cholinesterase): 2.4 nM | KA ([2]; filed as activator): 542 nM | KA ([3]; filed as activator): 3.12 µM | KA ([4]; filed as activator): 289 nM | KA ([5]; filed as activator): 0.703 µM
